{"source": "patent US10085966B2", "about": "“Compositions and methods for skin care” (Antipodean Pharmaceuticals, Inc., priority 2008, dated 2018)", "type_in_all_cases": "cell-based", "key": {"[1]": {"system": "ERK MAP kinase", "test": "UV irradiation-induced activation of ERK MAP kinase in cultured human keratinocytes", "conditions": "pretreatment of keratinocytes with the indicated concentrations (FIG. 4)", "text": "(§1) Ultraviolet (UV) irradiation causes skin photoaging and has been reported to activate mitogen-activated protein (MAP) kinase signal transduction pathways. (Fisher et al., 1998 J. Clin. Invest. 101:1432; Kang et al., 2003 J. Invest. Dermatol. 120:835). The mechanism of UV activation of the epidermal growth factor receptor (EGFR) in such pathways remains unknown, although a role for ROS has been implicated (Xu et al., 2006 Am. J. Pathol. 169:823; Xu et al., 2006 J. Biol. Chem. 281:27389). This Example describes an in vitro model of UV-induced signal transduction in human keratinocytes. Publications describing exemplary materials and methods that were adapted to perform these experiments include e.g., Pilcher et al., 1997 J. Cell Biol. 137:1445; Notary et al., 2000 J. Cell Biol. 149:1309; Netzel-Arnett et al., 2002 J. Biol. Chem. 277:45154; Fisher et al., 2002 Arch Dermatol. 138:1462; Kang et al., 2003 J. Invest. Dermatol. 120:835; Xu et al., 2006 Am J Pathol. 169:823; Xu et al., 2006 J Biol. Chem 281:27389.\n(§2) Exposure of cultured human keratinocytes to UV irradiation activated ERK MAP kinase, as evidenced by elevated levels of phosphorylated ERK polypeptide in immunoprecipitates from UV-irradiated keratinocytes relative to untreated control keratinocytes. (FIG. 4)"}, "[2]": {"system": "matrix metalloproteinase-1 (MMP1)", "test": "MMP1 expression by human skin fibroblasts in collagenase-fragmented three-dimensional collagen lattices", "conditions": "1 nM, relative to controls (FIG. 3)", "text": "(§3) In photoaged human skin in vivo, skin wrinkling was accompanied by elevated collagenase levels that stimulated collagen fragmentation and ROS production. This Example describes an in vitro model of skin collagen fragmentation that was created and tested for the effects of antioxidant compounds. Materials and methods for preparing three-dimensional extracellular matrix (ECM) collagen lattices, for culturing skin fibroblasts and keratinocytes thereupon, and for treating such matrices with, and characterizing the effects on them of, matrix metalloproteinases (MMPs) have been described (see, e.g., Pilcher et al., 1997 J. Cell Biol. 137:1445; Notary et al., 2000 J. Cell Biol. 149:1309; Netzel-Arnett et al., 2002 J. Biol. Chem. 277:45154; Fisher et al., 2002 Arch Dermatol. 138:1462; Kang et al., 2003 J. Invest. Dermatol. 120:835; Xu et al., 2006 Am J Pathol. 169:823; Xu et al., 2006 J Biol. Chem 281:27389).\n(§4) Human skin fibroblasts were cultured in three-dimensional collagen lattices, which mimicked the dermal extracellular matrix. In intact collagen lattices, dermal fibroblasts spread by attachment to the collagen, and produced relatively low levels of the collagenase known as matrix metalloproteinase-1 (MMP1). […]"}, "[3]": {"system": "human skin fibroblasts", "test": "ROS production by human skin fibroblasts in collagenase-fragmented three-dimensional collagen lattices", "conditions": "1 nM, relative to controls (FIG. 2)", "text": "as §3, §4"}, "[4]": {"system": "ERK1", "test": "UV irradiation-induced ERK1 phosphorylation in cultured human keratinocytes", "text": "as §1, §2"}, "[5]": {"system": "ERK2", "test": "UV irradiation-induced ERK2 phosphorylation in cultured human keratinocytes", "text": "as §1, §2"}, "[6]": {"conditions": "exposure to MitoQ10 (FIG. 4 lower panel)"}, "[7]": {"conditions": "incubation of keratinocytes prior to UV irradiation (FIG. 4 upper panel)"}}}
{"smiles": "COC1=C(OC)C(=O)C(CCCCCCCCCC[P+](c2ccccc2)(c2ccccc2)c2ccccc2)=C(C)C1=O.CS(=O)(=O)[O-]", "note": "[MitoQ10 mesylate, [10-(4,5-dimethoxy-2-methyl-3,6-dioxo-1,4-cyclohexadien-1-yl)decyl] triphenylphosphonium methanesulfonate]", "values": [{"measurement": "activation of ERK MAP kinase by subsequent UV irradiation", "setting": "[1]", "result": "substantially inhibited"}, {"measurement": "matrix metalloproteinase-1 expression, MMP1 mRNA", "setting": "[2]", "result": "significantly reduced"}, {"measurement": "matrix metalloproteinase-1 expression, MMP1 protein", "setting": "[2]", "result": "significantly reduced"}, {"measurement": "oxidant (ROS) levels", "setting": "[3]", "result": "significantly reduced"}, {"measurement": "amount of Erk1 in the keratinocytes", "setting": "[4]; [6]", "result": "not altered"}, {"measurement": "ERK1 phosphorylation", "setting": "[4]; [7]", "result": "significantly reduced"}, {"measurement": "amount of Erk2 in the keratinocytes", "setting": "[5]; [6]", "result": "not altered"}, {"measurement": "ERK2 phosphorylation", "setting": "[5]; [7]", "result": "significantly reduced"}]}
